Source: patent US6521262B2, “Solid instant-release forms of administration and process for producing the same” (Heidelberg Pharma Holding GmbH, priority 1996, dated 2003)

| SMILES | viscosity of the solution (aqueous 7% solution of the active substance) | viscosity (2% aqueous solution of the active substance) [mpas*sec] |
| --- | --- | --- |
| CCCCCCCCCCCCSCC(COP(=O)([O-])OCC1OC(n2cc(C)c(=O)[nH]c2=O)CC1N=[N+]=[N-])OCCCCCCCCCC.[Na+] (centres unmarked) [Example 1 active substance, Na salt of 3′-azido-3′-deoxy-5′-thymidylic acid-mono[3-(dodecyl-thio)-2-decyloxypropyl]-ester] | 500-600 mpa*sec |  |
| CCCCCCCCCCCCSCC(COP(=O)([O-])OCC1OC(n2cc(C)c(=O)[nH]c2=O)CC1F)OCCCCCCCCCC.[Na+] (centres unmarked) [Example 3 active substance, Na salt of 3′-fluoro-3′-deoxy-5′-thymidylic acid-mono[3-(dodecyl-thio)-2-decyloxypropyl]-ester] |  | 6 |
